Assay results as given in patent US7012095B2, “Compounds for modulating cell proliferation” (HSC Research and Development Limited, priority 2000, dated 2006).

Key:
Ly-MN lymphoma cells = experiment: Killing of Ly-MN lymphoma cells in colony culture; type: cell-based; settings: colonies at 5 days; FIG. 5
Method: Ly-MN cells were plated in 1 ml volumes, in the absence of exogenous growth factors, into 35 mm petri dishes (Nunc, Gibco) containing IMDM (OCI, Toronto) plus 20% human cord blood plasma in 0.9% (vol/vol) methylcellulose (Fluka, Switzerland) and the indicated concentrations of CR4. Cultures were set at 37° C., 5% CO2 in a humidified atmosphere. Colonies consisting of more than 20 cells were counted at 5 days or earlier using an inverted microscope.

normal bone marrow cells = experiment: CFU-GEMM assay, normal bone marrow differentiation in culture; type: cell-based
Method: The CFU-GEMM assay was performed according to Fauser and Messner (1978, Blood, 52(6) 143–8) and Messner and Fausser (1980, Blut, 41(5) 327–33) with some variations. In brief, heparinized bone marrow cells were layered over Percoll (1.077 gm/ml) (Pharmacia Fine Chemical, Piscataway N.J.) and centrifuged at 400 g at 4° C. for 10 minutes to remove neutrophils and RBCs. The fractionated BM cells at 2×10^5 cells/ml were cultured in IMDM (OCI, Toronto) containing 0.9% (vol/vol) methylcellulose supplemented with 30% FCS (Cansera Rexdale, ON.) or normal human plasma, a cocktail of cytokines containing G-CSF (10 ng/ml, Amgen), IL-3 (40 U/ml, Immunex), MGF (50 ng/ml, Immunex), Erythropoietin (2 u/ml, Epprex) or TPO (10 ng/ml, Amgen), 5×10^−5M β-2-mercaptoethanol and the specified concentration of CR4. The culture mixture was plated in 1 ml volumes into 35 mm petri dishes and incubated at 37° C., 5% CO2 in a humidified atmosphere. All cultures were evaluated at 14 days for the number of BFU-E colonies (defined as aggregates of more than 500 hemoglobinized cells or, 3 or more erythroid subcolonies), CFU-GM colonies (defined as granulocyte or monocyte-macrophage cells or both), CFU-Meg colonies (comprising 4 or more megakaryocytes) and CFU-GEMM colonies (a mixed population comprising of all elements).
The CFU-GEMM assay was performed according to Fauser and Messner (1978, Blood, 52(6) 1243–8) and Messner and Fausser (1980, Blut, 41(5) 327–33) with some variations. In brief, heparinized bone marrow cells were layered over Percoll (1.077 gm/ml) (Pharmacia Fine Chemical, Piscataway N.J.) and centrifuged at 400 g at 4° C. for 10 minutes to remove neutrophils and RBCs. […] All cultures were evaluated at 14 days for the number of BFU-E colonies (defined as aggregates of more than 500 hemaglobinized cells or, 3 or more erythroid subcolonies) and CFU-C colonies (defined as granulocyte or monocyte-macrophage cells or both).
The CFU-GEMM assay was performed according to Fauser and Messner (1978, Blood, 52(6) 1243–8) and Messner and Fausser (1980, Blut, 41(5) 327–33) with some variations (British Journal of Haematology, 1992, 80, p40–48). […] All cultures were evaluated at 14 days for the number of BFU-E colonies (defined as aggregates of more than 500 hemoglobinized cells or, 3 or more erythroid subcolonies) and CFU-C colonies (defined as granulocyte or monocyte-macrophage cells or both).

OCI-LY2 lymphoma cells = experiment: In vitro purging of OCI-Ly2 lymphoma cells; type: cell-based; settings: 5 hours exposure, FIG. 16
Method: (§1) For the purging assay, the cells were resuspended in complete medium with or without CR4 as indicated and incubated at 37° C., 5% CO2 for 0–5 hours. Cells were then washed thoroughly with medium to remove CR4, resuspended and plated in 1 ml volumes at 5×10^3 cells/ml, in the absence of exogenous growth factors, into 35 mm petri dishes (Nunc, Gibco) containing IMDM (OCI, Toronto) plus 20% human cord blood plasma in 0.9% (vol/vol) methylcellulose (Fluka, Switzerland). Cultures were set at 37° C., 5% CO2 in a humidified atmosphere. Colonies consisting of more than 20 cells were counted at 5 days or earlier using an inverted microscope.

[1] = test system: Z119 acute lymphoblastic leukemia cells; experiment: In vitro purging of Z119 acute lymphoblastic leukemia; type: cell-based, human; settings: 50 μM, 2.5 hours exposure; FIG. 15
Method: as §1, with “remove the” for “remove”, “ml volumes,” for “ml volumes at 5×10^3 cells/ml,”, “containing alpha MEM (Gibco)” for “containing IMDM (OCI, Toronto)”, “20% FCS (Cansera Rexdale, ON.)” for “20% human cord blood plasma”, “at 9” for “at 5”

Question: Which “concentration by which inhibition was effected” value (Ly-MN lymphoma cells) does the source give for N#C/C(=C\C=C\c1ccc(O)c(O)c1)C(=O)NCc1ccccc1 [CR4, (E,E)-2-(Benzylamido)-3-(3,4-dihydroxystyryl)acrylonitrile] here?
Answer: 2.5 µM

Question: What about the “effect upon normal cells” value (normal bone marrow cells; at concentrations equivalent to those active on the cancer cells of the same example) of the same molecule?
Answer: no effect

Question: What about the “toxicity to normal cells” value (normal bone marrow cells; until concentrations of 10–20 μM or greater were achieved) of the same molecule?
Answer: minimal toxicity

Question: And the “killing of OCI-Ly2 cells” value (OCI-LY2 lymphoma cells; 12.5 μM)?
Answer: significant killing

Question: And the “killing of OCI-Ly2 cells” value (OCI-LY2 lymphoma cells; 25–50 μM)?
Answer: 90%

Question: What about the “inhibition of Z119 cells” value [1] of the same molecule?
Answer: complete inhibition
